One test has as its target T1, human erythrocyte AChE (Homo sapiens, UniProt P22303).
T1 construct: Erythrocytes were washed three times in isotonic saline, lysed; from tissue; host or cells: human erythrocytes from freshly collected blood, washed, lysed in 0.5% Triton-X
In words: biochemical.

The target in the next test is T2, human plasma BChE (Homo sapiens, UniProt P06276).
T2 construct: the plasma was separated and diluted; from tissue; host or cells: human plasma from freshly collected blood, diluted 1:125
In words: biochemical.

The test system of test [1] is cholinesterase (ChE). The note with it: cited from earlier work.
The subject of test [2] is cholinesterase (ChE). The class given is biochemical.
A further test concerns AChE. The class given is in vivo, rat. The note with it: for inhibiting properties and persistence: dialkylcarbamate vs mono-substituted carbamate.
In a further test the test system is neuromuscular AChR. The note with it: natural isomer; cited from earlier work.
Setting [3] is: AChE vs BChE, in vitro, biological standards.
Setting [4] is: AChE vs BChE, in vitro, used as biological standards in this art area.

Entries after “also recorded” stand apart in the source; their conditions may differ. Like-named read-outs stand apart in the source and are kept apart here.

T2 sequence (P06276 29-602): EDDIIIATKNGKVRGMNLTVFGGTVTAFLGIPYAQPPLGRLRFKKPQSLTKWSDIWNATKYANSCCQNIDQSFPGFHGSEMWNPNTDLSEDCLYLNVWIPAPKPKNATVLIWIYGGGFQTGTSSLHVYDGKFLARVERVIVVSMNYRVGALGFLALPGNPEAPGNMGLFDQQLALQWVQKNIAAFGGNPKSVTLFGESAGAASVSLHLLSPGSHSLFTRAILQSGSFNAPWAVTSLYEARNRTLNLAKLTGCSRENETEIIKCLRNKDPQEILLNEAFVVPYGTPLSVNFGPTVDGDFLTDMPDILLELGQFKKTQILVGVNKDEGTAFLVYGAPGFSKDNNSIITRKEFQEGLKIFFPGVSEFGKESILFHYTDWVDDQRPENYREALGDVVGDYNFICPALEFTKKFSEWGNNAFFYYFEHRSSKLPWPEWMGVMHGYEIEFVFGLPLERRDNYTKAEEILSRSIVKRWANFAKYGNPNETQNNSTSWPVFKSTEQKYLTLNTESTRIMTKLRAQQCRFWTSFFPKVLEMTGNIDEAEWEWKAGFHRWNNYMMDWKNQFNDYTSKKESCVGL
T1 sequence (P22303-2 with tags, fused parts or gaps limits assumed): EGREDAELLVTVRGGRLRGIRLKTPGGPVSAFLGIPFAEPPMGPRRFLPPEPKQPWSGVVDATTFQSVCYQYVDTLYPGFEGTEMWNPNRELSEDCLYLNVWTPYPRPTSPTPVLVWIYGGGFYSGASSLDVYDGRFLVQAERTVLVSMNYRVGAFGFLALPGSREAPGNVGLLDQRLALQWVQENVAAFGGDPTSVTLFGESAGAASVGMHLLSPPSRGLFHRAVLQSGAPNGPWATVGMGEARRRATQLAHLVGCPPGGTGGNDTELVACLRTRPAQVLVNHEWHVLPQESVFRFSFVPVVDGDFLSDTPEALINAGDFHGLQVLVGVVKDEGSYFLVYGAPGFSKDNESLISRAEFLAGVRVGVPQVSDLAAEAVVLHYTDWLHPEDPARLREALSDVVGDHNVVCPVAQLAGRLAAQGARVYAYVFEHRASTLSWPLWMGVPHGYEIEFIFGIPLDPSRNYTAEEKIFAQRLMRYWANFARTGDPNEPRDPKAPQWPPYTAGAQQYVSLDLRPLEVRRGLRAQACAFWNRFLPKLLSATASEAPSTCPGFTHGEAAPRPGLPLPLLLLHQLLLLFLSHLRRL

For the molecule `Cc1ccccc1NC(=O)Oc1ccc2c(c1)[C@]1(C)CCS[C@@H]1N2C` [Ex. 4, (-)-3,3a,8,8a-tetrahydro-3a,8-dimethyl;-2H-thieno[2,3-b]indole-5-ol 2'-methylphenylcarbamate], the IC50 against human erythrocyte AChE was 29 ± 5.6 nM; against human plasma BChE, 5280 ± 354 nM.

Regarding `CNC(=O)Oc1ccc2c(c1)[C@@]1(C)CCN(C)[C@H]1N2C` [(+)-physostigmine], the “inhibition of cholinesterase (ChE)” value in the test with cholinesterase (ChE) [1] was “only negligible inhibition; also recorded: only negligible ChE inhibitory activity”.

On human plasma BChE, `CNC(=O)Oc1ccc2c(c1)[C@]1(C)CCO[C@@H]1N2C` [(-)-physovenine] showed an IC50 of 2.7 ± 1.4 nM. Moreover, the “inhibition of AChE and BChE in vitro, comparison” value (“inhibition of AChE and BChE” below) in the test with cholinesterase (ChE) [2] (setting [3]) and with cholinesterase (ChE) [1] (setting [4]) was “similarly at similar concentrations” throughout. Moreover, the “inhibition of cholinesterases in vitro and in vivo” value in the test on cholinesterase (ChE) [1] (prior art) is “potent inhibitors of cholinesterases in vitro and in vivo”.

For the molecule `CCCCNC(=O)Oc1ccc2c(c1)[C@]1(C)CCS[C@@H]1N2C` [Ex. 1, (-)-3,3a, 8,8a-tetrahydro-3a, 8-dimethyl-2H-thieno-[2,3-b]indole-5-ol butyl carbamate], the half-inhibitory concentration (IC50) was determined as 13.5 ± 1.5 nM on human erythrocyte AChE and 0.7 ± 0.1 nM against human plasma BChE.

With `CN(C)C(=O)Oc1ccc2c(c1)[C@]1(C)CCS[C@@H]1N2C` [Ex. 9, (-)-3,3a,8,8a-tetrahydro-3a,8-dimethyl-2H-thieno[2,3-b]indole-5-ol N,N-dimethylcarbamate], the IC50 against human erythrocyte AChE amounted to 197 ± 34.1 nM; on human plasma BChE, 22.5 ± 0.1 nM. Moreover, the “inhibiting properties and persistence” value in the test with AChE is “longlasting inhibiting properties”.

Take `CCCCCCCNC(=O)Oc1ccc2c(c1)[C@]1(C)CCS[C@@H]1N2C` [Ex. 2, (-)-3,3a,8,8a-tetrahydro-3a,8-dimethyl-2H-thieno[2,3-b]indole-5-ol heptylcarbamate]: the IC50 was found to be 25.7 ± 2.8 nM at human erythrocyte AChE and 6.8 ± 1.3 nM against human plasma BChE.

Regarding `CCc1ccccc1NC(=O)Oc1ccc2c(c1)[C@]1(C)CCS[C@@H]1N2C` [Ex. 5, (-)-3,3a,8,8a-tetrahydro-3a,8-dimethyl-2H-thieno[2,3-b]indole-5-ol 2'-ethylphenylcarbamate], the IC50 against human erythrocyte AChE was 30.1 ± 0.2 nM; against human plasma BChE, 3430 ± 259 nM.

For the molecule `CN1c2ccc(OC(=O)Nc3ccccc3)cc2[C@]2(C)CCS[C@H]12` [Ex. 3, (-)-3,3a,8,8a-tetrahydro-3a,8-dimethyl-2H-thieno[2,3-b]indole-5-ol phenylcarbamate], the IC50 is 27.2 ± 7.1 nM at human erythrocyte AChE and 1660 ± 354 nM against human plasma BChE.

`CNC(=O)Oc1ccc2c(c1)[C@]1(C)CCN(C)[C@@H]1N2C` [(-)-physostigmine]: in the test on AChE (rat, in vivo, iv), the “duration of action of AChE inhibition” value is “duration of action is short” and the “in vivo inhibition of AChE” value is “good inhibition properties”. Besides, the “inhibition of AChE and BChE” value with cholinesterase (ChE) [2] was “similarly at similar concentrations”. Besides, in the test on cholinesterase (ChE) [1], the “inhibition of AChE and BChE” value is listed as “similarly at similar concentrations”; the “inhibition of cholinesterases in vitro and in vivo” value was “potent inhibitors of cholinesterases in vitro and in vivo”. Also, the “properties at the neuromuscular AChR” value with neuromuscular AChR is reported as “blocking properties as well as agonist properties”.

Regarding `CNC(=O)Oc1ccc2c(c1)[C@]1(C)CCN[C@@H]1N2C` [(-)-N(1)-Norphysostigmine], the “inhibition of AChE and BChE” value in the test with cholinesterase (ChE) [2] (setting [3]) and in the test with cholinesterase (ChE) [1] (setting [4]) was “similarly at similar concentrations” throughout.

`CC(C)c1ccccc1NC(=O)Oc1ccc2c(c1)[C@]1(C)CCS[C@@H]1N2C` [Ex. 6, (-)-3,3a,8,8a-tetrahydro-3a,8-dimethy-2H-thieno[2,3-b]indole-5-ol 2'-isopropylphenylcarbamate]: the IC50 against human erythrocyte AChE worked out at 25.5 ± 3.3 nM; against human plasma BChE, 963 ± 106 nM.

`Cc1ccc(NC(=O)Oc2ccc3c(c2)[C@]2(C)CCS[C@@H]2N3C)c(C)c1` [Ex. 8, (-) -3,3a,8,8a-tetrahydro-3a,8-dimethyl-2H-thieno[2,3-b]indole-5-ol 2',4'-dimethylphenylcarbamate]: the IC50 came out at 26.3 ± 3.8 nM on human erythrocyte AChE and 1870 ± 291 nM against human plasma BChE.

For the molecule `CC(C)c1ccc(NC(=O)Oc2ccc3c(c2)[C@]2(C)CCS[C@@H]2N3C)cc1` [Ex. 7, (-)-3,3a,8,8a-tetrahydro-3a,8-dimethyl-2H-thieno[2,3-b]indole-5-ol 4'-isopropylphenylcarbamate], the figures for the IC50 at human erythrocyte AChE and against human plasma BChE were greater than 10000 nM and 45.3 ± 12.4 nM, respectively.

As for `CNC(=O)Oc1ccc2c(c1)[C@]1(C)CCS[C@@H]1N2C` [(-)-thiaphysovenine], the “inhibiting properties and persistence” value with AChE is reported as “good inhibition properties but does not persist”. Moreover, the “duration of action / persistence of AChE inhibition” value in the test with AChE (rat plasma, i.v., 5 mg/kg, 480 minute period, FIG. 2) is reported as “short duration of action”. For the same molecule, in the test with AChE (rat plasma, i.v., FIG. 1), the “duration of action of AChE inhibition” value was “duration of action is short” and the “in vivo inhibition of AChE” value was “good inhibition properties”.

(Values after US5378723A (priority 1994, dated 1995).)
